{"source": "paper PMC6198068", "about": "“Discovery of a Novel Nav1.7 Inhibitor From Cyriopagopus albostriatus Venom With Potent Analgesic Efficacy” (Frontiers in Pharmacology, 2018)", "key": {"Nav1.7/D816N [1]": {"biological_target": "T1, Nav1.7/D816N (Homo sapiens, UniProt Q15858, D827N)", "T1 construct": "expressed in transfected cells; host or cells: HEK293T", "T1 sequence (O60939 30-215)": "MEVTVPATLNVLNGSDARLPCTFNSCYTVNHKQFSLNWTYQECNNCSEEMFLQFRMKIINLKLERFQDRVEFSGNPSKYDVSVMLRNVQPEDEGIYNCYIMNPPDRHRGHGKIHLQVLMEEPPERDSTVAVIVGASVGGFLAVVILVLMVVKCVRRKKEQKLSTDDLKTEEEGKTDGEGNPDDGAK", "T1 sequence (Q07699 19-218, further chain)": "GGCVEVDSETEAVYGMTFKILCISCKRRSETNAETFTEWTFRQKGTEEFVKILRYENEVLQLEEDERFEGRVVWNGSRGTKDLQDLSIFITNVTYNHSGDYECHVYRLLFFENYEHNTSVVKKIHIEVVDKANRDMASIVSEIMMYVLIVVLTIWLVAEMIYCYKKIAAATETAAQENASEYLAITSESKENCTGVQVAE", "T1 sequence (Q15858 other isoform, or with tags, fused parts or gaps D816N)": "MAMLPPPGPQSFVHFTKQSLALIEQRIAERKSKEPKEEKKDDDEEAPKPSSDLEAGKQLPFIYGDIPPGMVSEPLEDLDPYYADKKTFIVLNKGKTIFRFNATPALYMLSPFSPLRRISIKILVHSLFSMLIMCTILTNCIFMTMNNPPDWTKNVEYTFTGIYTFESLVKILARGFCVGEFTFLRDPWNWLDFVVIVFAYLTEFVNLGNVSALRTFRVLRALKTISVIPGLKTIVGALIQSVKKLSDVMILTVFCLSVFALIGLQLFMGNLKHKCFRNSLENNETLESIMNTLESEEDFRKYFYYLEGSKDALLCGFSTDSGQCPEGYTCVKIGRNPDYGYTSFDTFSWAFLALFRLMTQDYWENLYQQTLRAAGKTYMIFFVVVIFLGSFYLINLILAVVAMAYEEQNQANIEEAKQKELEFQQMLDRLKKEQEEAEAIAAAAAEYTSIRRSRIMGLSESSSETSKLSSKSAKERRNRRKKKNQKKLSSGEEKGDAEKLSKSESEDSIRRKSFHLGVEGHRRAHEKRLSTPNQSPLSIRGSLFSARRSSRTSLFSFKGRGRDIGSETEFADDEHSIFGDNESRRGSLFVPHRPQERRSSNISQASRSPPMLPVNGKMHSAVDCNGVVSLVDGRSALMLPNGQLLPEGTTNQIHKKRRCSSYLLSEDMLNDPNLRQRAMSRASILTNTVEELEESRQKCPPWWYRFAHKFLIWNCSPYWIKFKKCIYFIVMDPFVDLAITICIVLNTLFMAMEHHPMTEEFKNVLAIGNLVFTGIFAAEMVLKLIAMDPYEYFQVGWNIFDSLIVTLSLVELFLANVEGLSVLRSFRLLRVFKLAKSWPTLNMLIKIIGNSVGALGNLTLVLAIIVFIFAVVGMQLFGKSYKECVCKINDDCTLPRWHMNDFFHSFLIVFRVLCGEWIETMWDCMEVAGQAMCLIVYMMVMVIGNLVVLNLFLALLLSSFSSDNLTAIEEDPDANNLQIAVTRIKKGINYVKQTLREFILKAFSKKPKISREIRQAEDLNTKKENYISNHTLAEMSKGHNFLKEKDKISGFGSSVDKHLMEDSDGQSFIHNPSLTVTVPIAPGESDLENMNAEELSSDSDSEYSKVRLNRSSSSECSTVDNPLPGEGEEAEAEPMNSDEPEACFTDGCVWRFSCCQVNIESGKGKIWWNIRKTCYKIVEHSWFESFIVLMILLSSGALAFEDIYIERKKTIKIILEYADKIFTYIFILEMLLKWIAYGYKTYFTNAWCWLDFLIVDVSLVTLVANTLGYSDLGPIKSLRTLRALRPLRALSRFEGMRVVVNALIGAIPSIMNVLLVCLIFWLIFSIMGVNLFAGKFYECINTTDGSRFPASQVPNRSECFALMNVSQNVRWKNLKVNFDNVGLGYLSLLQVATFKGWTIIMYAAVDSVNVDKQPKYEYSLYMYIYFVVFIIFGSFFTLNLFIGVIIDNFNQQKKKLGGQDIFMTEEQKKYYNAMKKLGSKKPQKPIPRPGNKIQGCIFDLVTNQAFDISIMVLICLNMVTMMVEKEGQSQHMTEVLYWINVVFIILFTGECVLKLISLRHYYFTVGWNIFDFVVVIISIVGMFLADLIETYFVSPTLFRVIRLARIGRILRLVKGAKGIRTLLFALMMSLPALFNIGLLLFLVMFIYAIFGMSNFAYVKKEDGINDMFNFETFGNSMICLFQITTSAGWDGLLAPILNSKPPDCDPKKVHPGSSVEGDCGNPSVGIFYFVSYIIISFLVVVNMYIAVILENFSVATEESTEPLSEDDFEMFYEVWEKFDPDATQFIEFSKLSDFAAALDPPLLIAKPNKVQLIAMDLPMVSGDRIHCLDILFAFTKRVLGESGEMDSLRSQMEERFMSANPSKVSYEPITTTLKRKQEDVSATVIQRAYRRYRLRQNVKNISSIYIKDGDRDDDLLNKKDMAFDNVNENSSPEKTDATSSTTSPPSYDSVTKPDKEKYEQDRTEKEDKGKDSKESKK", "test": "Time course of Nav1.7/D816N inhibition and recovery upon washing", "assay_type": "cell-based", "conditions": "1 μM, n = 4", "source_text": "(§1) The cDNA genes encoding rat Nav1.4 and human Nav1.7 were subcloned into vectors pRGB4 and pcDNA3.1-mod, respectively. Mutations of rNav1.4 (N655D, Q657E, and N655D/Q657E) and hNav1.7 (D816N, E818Q, and D816N/E818Q) were constructed using the Gene Tailor Site-Directed Mutagenesis system (Invitrogen, Carlsbad, CA, United States), according to the manufacturer’s instructions. Nav1.2–Nav1.7 and mutant plasmids together with eGFP were transiently transfected into HEK293T cells while Nav1.8 together with eGFP was transiently transfected into ND7/23 cells by Lipofectamine 2000 (Invitrogen, Carlsbad, CA, United States). Additionally, plasmids β1- and β2-eGFP encoding the human β1 and β2 subunits, respectively, were co-transfected with those encoding WT Nav1.7 and Nav1.7 mutations in HEK293T cells. […] Cells with green fluorescent protein fluorescence were selected for whole-cell patch-clamp recordings 24 h after transfection.\n(§2) Whole-cell patch-clamp recordings were performed at room temperature (20–25°C) using an EPC 10 USB Patch Clamp Amplifier (HEKA, Elektronik, Lambrecht, Germany). […] Data was analyzed by software Igo Pro 6.10A (WaveMetrics, Lake Oswego, OR, United States), SigmaPlot 10.0 (Sigma-Aldrich, St. Louis, MO, United States), OriginPro 8 (OriginLab Corp., Northampton, MA, United States), and GraphPad Prism 5 (GraphPad Software, San Diego, CA, United States). […]"}, "Nav1.5": {"biological_target": "T2, Nav1.5 (Homo sapiens, UniProt Q14524)", "T2 construct": "expressed in transfected cells; host or cells: HEK293T", "test": "in vitro", "source_text": "as §1, with “cells. Human Nav1.9 was transfected into ND7/23 cells according to a previous report ([Zhou et al., 2017]).” for “cells.”\nas §2\nConcentration-response curves were fitted using the following Hill logistic equation: y = fmax − (fmax − fmin)/(1 + (x/IC50)^n), where fmax and fmin, respectively, represent the channel’s maximum and minimum responses to toxins, fmin was set to 0, x represents toxin concentration and n is an empirical Hill coefficient. […] Peak inward currents from steady-state inactivation were normalized by the maximum current amplitude and fit with a Boltzmann equation I = Imin + 1/(1 + exp[Vm − V1/2/k]) where I is the current amplitude measured during the test depolarization, V1/2 is the midpoint of inaction, and k is the slope factor. […]"}, "Nav1.7": {"biological_target": "T3, Nav1.7 (Homo sapiens, UniProt Q15858)", "T3 construct": "expressed in transfected cells; host or cells: HEK293T", "T3 sequence (O60939 30-215)": "as the sequence (O60939 30-215) above", "T3 sequence (Q15858 other isoform, or with tags, fused parts or gaps)": "as the sequence (Q15858 other isoform, or with tags, fused parts or gaps D816N) above, with N816D counted along it", "T3 sequence (Q07699 19-218, further chain)": "as the sequence (Q07699 19-218, further chain) above", "test": "I–V relationships and voltage-dependent activation of Nav1.7", "assay_type": "cell-based", "conditions": "0.2 μM, n = 10", "source_text": "as §1, §2"}, "Nav1.8": {"tested_on": "Nav1.8", "test": "Whole-cell patch-clamp, Nav1.8 in ND7/23 cells", "assay_type": "cell-based", "conditions": "up to 10 μM, depolarization to +20 mV", "source_text": "as §1, §2"}, "Nav1.7/D816N [2]": {"biological_target": "T1, Nav1.7/D816N", "test": "Whole-cell patch-clamp, Nav1.7/D816N in HEK293T cells", "assay_type": "cell-based", "source_text": "as §1, §2"}, "[3]": {"tested_on": "acetic acid-induced writhing in mice", "assay_type": "in vivo, ICR mice", "conditions": "counted 30 min, control 27.3 ± 3.3, mean ± SEM, n = 6–8", "method": "The ICR mice (18–22 g) used in this study were purchased from the Experimental Animal Center of SLac-kinda (Changsha, China). The animals were maintained at 20–25°C and freely allowed to standard rodent chow and water ad libitum. Ethical approval for in vivo experiments in animals was approved by the Animal Care and Use Committee (ACUC) at the Hunan Province Animal Management Office (HPAMO).\nThe abdominal writhing responses were counted for 30 min continuously."}}, "note": "Like-named read-outs stand apart in the source and are kept apart here. Where a SMILES comes first, the peptide text is derived from it. Bridges are numbered along the chain shown (N, C = ends)."}
{"smiles": "CC(C)C[C@H](NC(=O)[C@H](CC(=O)O)NC(=O)[C@H](Cc1ccc(O)cc1)NC(=O)[C@H](CCCCN)NC(=O)[C@@H]1CSSC[C@@H]2NC(=O)[C@H](CCCCN)NC(=O)[C@H](CC(=O)O)NC(=O)[C@H](CC(N)=O)NC(=O)[C@H](CO)NC(=O)[C@@H]3CCCN3C(=O)[C@H](CC(N)=O)NC(=O)[C@@H]3CSSC[C@H](NC(=O)[C@H](C(C)C)NC(=O)[C@H](CC(C)C)NC(=O)[C@H](CO)NC(=O)[C@H](CO)NC(=O)[C@H](CO)NC(=O)[C@H](CCCCN)NC(=O)[C@H](CSSC[C@H](NC(=O)[C@H](C)N)C(=O)N[C@@H](CC(C)C)C(=O)NCC(=O)N[C@@H](Cc4ccccc4)C(=O)NCC(=O)N[C@@H](CCC(=O)O)C(=O)N[C@@H](CCCCN)C(=O)N3)NC2=O)C(=O)N[C@@H](CO)C(=O)N[C@@H](CCC(N)=O)C(=O)N[C@@H](CCCCN)C(=O)N[C@@H](Cc2c[nH]cn2)C(=O)N[C@@H](CCCCN)C(=O)N[C@@H](Cc2c[nH]c3ccccc23)C(=O)N1)C(=O)O", "note": "[Ca2a] (H-ACLGFGEKCNPSNDKCCKSSSLVCSQKHKWCKYDL-OH; disulfide 2-17, 9-24, 16-31 (inferred); N-terminus and C-terminus assumed)", "values": [{"measurement": "recovery of Nav1.7/D816N current on washout", "setting": "Nav1.7/D816N [1]; extended washout", "value": "did not recover"}, {"measurement": "τon, Nav1.7/D816N", "setting": "Nav1.7/D816N [1]", "value": "18.4 ± 1.3", "unit": "s"}, {"measurement": "selectivity ratio", "setting": "Nav1.5; cardiac isoform Nav1.5 vs Nav1.7, read-out: selectivity for Nav1.7 against Nav1.5", "value": "> 100"}, {"measurement": "IC50", "setting": "Nav1.5; cardiac muscle isoform, whole-cell patch-clamp, HEK293T", "value": "> 10", "unit": "µM"}, {"measurement": "inhibitory effect on Nav1.5 currents", "setting": "Nav1.5; up to 10 μM, HEK293T", "value": "no inhibitory effects"}, {"measurement": "half-activation voltage of Nav1.7", "setting": "Nav1.7; control −20.1 ± 1.1 mV, mean ± SEM", "value": "−18.9 ± 1.3", "unit": "mV"}, {"measurement": "threshold of initial activation voltage, active voltage of peak current, reversal potential of Nav1.7 (I–V)", "setting": "Nav1.7", "value": "did not change"}, {"measurement": "inhibitory effect on Nav1.8 currents", "setting": "Nav1.8", "value": "no inhibitory effects"}, {"measurement": "inhibition of Nav1.7/D816N current amplitude", "setting": "Nav1.7/D816N [2]; 1 μM", "value": "significantly inhibited"}, {"measurement": "IC50", "setting": "Nav1.7/D816N [2]; mean ± SEM, n = 5 cells per data point", "value": "0.172 ± 0.0114", "unit": "µM"}, {"measurement": "writhing numbers", "setting": "[3]; 50 μg/kg i.p. 15 min prior to 0.8% acetic acid", "value": "15.8 ± 2.4"}, {"measurement": "writhing numbers", "setting": "[3]; 100 μg/kg i.p. 15 min prior to 0.8% acetic acid", "value": "10.5 ± 2.8"}, {"measurement": "writhing numbers", "setting": "[3]; 200 μg/kg i.p. 15 min prior to 0.8% acetic acid", "value": "5.4 ± 2.2"}]}
